In patent US5352800A, “Process for the production of a novel endothelin antagonist” (Merck & Co., Inc., priority 1993, dated 1994):

Experiment: Stability of the product during purification (sensitivity to methanol)
Type: physicochemical
Conditions: particularly at a pH below 6

SMILES: CC=C(C)C=C(C)C1C(C)=CC2(C)CC(C)CCC2C1C(=O)C1=CC(O)(Cc2ccccc2)C(=O)N1 (stereo not shown) [Structural Formula I]
- instability of the product / sensitivity to methanol: sensitivity to methanol particularly at a pH below 6
